Assay results as given in ChEMBL document CHEMBL1148938, “Quinolone alkaloids with nitric oxide production inhibitory activity from Orixa japonica” (2004).
Active and inactive are the calls of the source. The rule behind the calls is not given here.

Legend:
[1] = system: RAW264.7; test: Inhibition of LPS/IFN-gamma-induced NO production in mouse RAW264.7 cells at 30 uM after 18 hrs; format: functional, cell-based
[2] = system: RAW264.7; test: Inhibition of LPS/IFN-gamma-induced NO production in mouse RAW264.7 cells at 10 uM after 18 hrs; format: functional; conditions: RAW264.7, 18 h
[3] = system: RAW264.7; test: Inhibition of LPS/IFN-gamma-induced NO production in mouse RAW264.7 cells at 50 uM after 18 hrs; format: functional; conditions: RAW264.7, 18 h

Structure (SMILES)	Activity [1]	inhibition at 10 µM [2] [%]	inhibition at 50 µM [3] [%]
COc1c2ccoc2nc2c3c(ccc12)OCO3	inactive		
COc1nc2c3c(ccc2c(OC)c1C[C@H]1OC1(C)C)OCO3	inactive		
COc1nc2c3c(ccc2c(OC)c1CC(=O)C(C)C)OCO3	inactive		
COc1c(CC(=O)C(C)C)c(=O)n(C)c2c(OC)cccc12 [ORIXALONE A]		47.3	54.8
